Key:
hPPARγ1 = molecular target: T1, hPPARγ1 (Homo sapiens, UniProt P37231); test: Determination of hPPARγ activity (GAL4 fusion luciferase reporter, HEK-293); format: cell-based; conditions: 1 μM compound; HEK-293 cells, GAL4-hPPARγ1 LBD reporter
T1 construct: expressed in transfected cells; host or cells: HEK-293
T1 sequence (P37231 238-503 limits assumed): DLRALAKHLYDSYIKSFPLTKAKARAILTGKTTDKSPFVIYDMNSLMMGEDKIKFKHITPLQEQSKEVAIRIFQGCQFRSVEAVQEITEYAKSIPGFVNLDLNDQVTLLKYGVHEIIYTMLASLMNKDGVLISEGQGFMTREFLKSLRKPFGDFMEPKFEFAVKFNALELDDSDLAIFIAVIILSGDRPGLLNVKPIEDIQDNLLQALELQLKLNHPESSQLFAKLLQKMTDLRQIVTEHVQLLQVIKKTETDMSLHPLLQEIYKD
Experimental: (§1) Ligand binding domain of hPPARγ1 was fused to DNA binding domain of Yeast transcription factor GAL4 in eucaryotic expression vector. Using lipofectamine (Gibco BRL, USA) as transfecting reagent HEK-293 cells were transfected with this plasmid and a reporter plasmid harboring the luciferase gene driven by a GAL4 specific promoter. Compound was added at 1 μM concentration after 48 hrs of transfection and incubated overnight.

hPPARα = molecular target: T2, hPPARα (Homo sapiens, UniProt Q07869); test: Determination of hPPARα activity (GAL4 fusion luciferase reporter, HEK-293); format: cell-based; conditions: 50 μM compound; HEK-293 cells, GAL4-hPPARα LBD reporter
T2 construct: expressed in transfected cells; host or cells: HEK-293
T2 sequence (Q07869 239-466 limits assumed): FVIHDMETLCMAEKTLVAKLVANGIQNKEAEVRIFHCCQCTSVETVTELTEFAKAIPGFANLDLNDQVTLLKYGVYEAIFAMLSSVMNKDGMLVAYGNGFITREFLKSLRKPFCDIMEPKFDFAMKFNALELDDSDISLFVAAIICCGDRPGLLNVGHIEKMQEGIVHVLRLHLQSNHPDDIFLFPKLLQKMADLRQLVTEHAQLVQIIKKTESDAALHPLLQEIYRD
Experimental: as §1, with “hPPARα” for “hPPARγ1”, “superfect (Qiagen, Germany)” for “lipofectamine (Gibco BRL, USA)”, “different concentrations” for “1 μM concentration”, “42” for “48”

C57BL/KsJ-db/db mice = test: Blood sugar and triglyceride lowering in db/db mice; format: in vivo, mouse
Excerpt: Mutation in colonies of laboratory animals and different sensitivities to dietary regimens have made the development of animal models with non-insulin dependent diabetes and hyperlipidemia associated with obesity and insulin resistance possible. Genetic models such as db/db and ob/ob (Diabetes, (1982) 31 (1): 1-6) mice and zucker fa/fa rates have been developed by the various laboratories for understanding the pathophysiology of disease and testing the efficacy of new antidiabetic compounds (Diabetes, (1983) 32: 830-838; Annu. Rep. Sankyo Res. Lab. (1994). 46: 1-57). The homozygous animals, C57 BL/KsJ-db/db mice developed by Jackson Laboratory, U.S., are obese, hyperglycemic, hyperinsulinemic and insulin resistant (J. Clin. Invest., (1990) 85: 962-967), whereas heterozygous are lean and normoglycemic. In db/db model, mouse progressively develops insulinopenia with age, a feature commonly observed in late stages of human type II diabetes when blood sugar levels are insufficiently controlled. The state of pancreas and its course vary according to the models. Since this model resembles that of type II diabetes mellitus, the compounds of the present invention were tested for blood sugar and triglycerides lowering activities.
Male C57BL/KsJ-db/db mice of 8 to 14 weeks age, having body weight range of 35 to 60 grams, bred at Dr. Reddy's Research Foundation (DRF) animal house, were used in the experiment. The mice were provided with standard feed (National Institute of Nutrition (NIN), Hyderabad, India) and acidified water, ad libitum. The animals having more than 350 mg/dl blood sugar were used for testing. The number of animals in each group was 4.
Test compounds were suspended on 0.25% carboxymethyl cellulose and administered to test group at a dose of 0.1 mg to 30 mg/kg through oral gavage daily for 6 days. The control group received vehicle (dose 10 mL/kg). On 6 th day the blood samples were collected one hour after administration of test compounds/vehicle for assessing the biological activity.
The random blood sugar and triglyceride levels were measured by collecting blood ([…]) through orbital sinus, using heparinised capillary in tubes containing EDTA which was centrifuged to obtain plasma. The plasma glucose and triglyceride levels were measured spectrometrically, by glucose oxidase and glycerol-3-PO4 oxidase/peroxidase enzyme (Dr. Reddy's Lab. Diagnostic Division Kits, Hyderabad, India) methods respectively.
The blood sugar and triglycerides lowering activities of the test compound was calculated according to the formula.
(§2) 1. Percent reduction in Blood sugar/triglycerides/total cholesterol were calculated according to the formula: [formula]

Swiss albino mice = test: Plasma triglyceride lowering activity in Swiss albino mice and Guinea pigs; format: in vivo, mouse; conditions: dose 1 mg (mg/kg), oral, 6 days; table follows the Swiss albino mice / Guinea pig section
Experimental: Male Swiss albino mice (SAM) and male Guinea pigs were obtained from NIN and housed in DRF animal house. All these animals were maintained under 12 hour light and dark cycle at 25±1° C. Animals were given standard laboratory chow (NIN, Hyderabad, India) and water, ad libitum, SAM of 20-25 g body weight range and Guinea pigs of 500-700 g body weight range were used (Oliver, P., Plancke, M. O., Marzin. D., Clavey, V., Sauzieres, J and Fruchart, J. C. Effects of fenofibrate, gemfibrozil and nicotinic acid on plasma lipoprotein levels in normal and hyperlipidemic mice. Atherosclerosis. 1988. 70: 107-114).
The test compounds were administered orally to Swiss albino mice at 0.3 to 30 mg/kg/day dose for 6 days. Control mice were treated with vehicle (0.25% Carboxymethylcellulose; dose 10 mL/kg). The test compounds were administered orally to Guinea pigs at 0.3 to 30 mg/kg/day dose for 6 days. Control animals were treated with vehicle (0.25% Carboxymethylcellulose; dose 5 mL/kg).
The blood samples were collected in fed state 1 hour after drug administration on 0 and 6 day of treatment. The blood was collected from the retro-orbital sinus through heparinised capillary in EDTA containing tubes. After centrifugation, plasma sample was separation for triglyceride and total cholesterol (Wieland, O. Methods of Enzymatic analysis. Bergemeyer, H. O., Ed., 1963. 211-214; Trinder, P. Ann. Clin. Biochem. 1969. 6: 24-27). Measurement of plasma triglyceride, total cholesterol and HDL were done using commercial kits (Dr. Reddy's Diagnostic Division, Hyderabad, India).
as §2

[1] = 10 mg/kg oral gavage daily for 6 days
[2] = 3 mg/kg oral gavage daily for 6 days
[3] = 1 mg/kg oral gavage daily for 6 days

CCOC(Cc1ccc(OCCN2c3ccccc3Sc3ccccc32)cc1)C(=O)O (racemic) [Example 11, (±) 3-[4-[2-(Phenothiazin-10-yl)ethoxy]phenyl]-2-ethoxypropanoic acid]
PPARγ (fold activation, luciferase activity) (hPPARγ1): 5.20 Fold | PPARα (fold activation, luciferase activity) (hPPARα): 6.42 Fold | Reduction in Blood Glucose Level (%) (C57BL/KsJ-db/db mice; [1]): 66% | Triglyceride Lowering (%) (C57BL/KsJ-db/db mice; [1]): 50%

CCOC(Cc1ccc2oc(CN3c4ccccc4Sc4ccccc43)cc2c1)C(=O)[O-].[Na+] (racemic) [Example 14, (±) 3-[2-(Phenothiazin-10-yl)methylbenzofuran-5-yl]-2-ethoxypropanoic acid, sodium salt]
Reduction in Blood Glucose Level (%) (C57BL/KsJ-db/db mice; [2]): 52% | Triglyceride Lowering (%) (C57BL/KsJ-db/db mice; [2]): 61%

CC(Cc1ccc(OCCN2c3ccccc3Oc3ccccc32)cc1)(Oc1ccccc1)C(=O)[O-].[Na+] (racemic) [Example 30, (±)3-[4-[2-(Phenoxazin-10-yl)ethoxy]phenyl]-2-phenoxy-2-methylpropanoic acid, sodium salt]
PPARγ (fold activation, luciferase activity) (hPPARγ1): 13.9 Fold | PPARα (fold activation, luciferase activity) (hPPARα): 9.3 Fold | Triglyceride Lowering (%) (Swiss albino mice): 58% | Reduction in Blood Glucose Level (%) (C57BL/KsJ-db/db mice; [3]): 44% | Triglyceride Lowering (%) (C57BL/KsJ-db/db mice; [3]): 05%

CCOC(Cc1ccc(OCCN2c3ccccc3Oc3ccccc32)cc1)C(=O)O.N=C(N)NCCC[C@H](N)C(=O)O (single isomer, unassigned; (-)) [Example 28, (−) 3-[4-[2-(Phenoxazin-10-yl)ethoxy]phenyl]-2-ethoxypropanoic acid, arginine salt]
Triglyceride Lowering (%) (Swiss albino mice): 22% | Reduction in Blood Glucose Level (%) (C57BL/KsJ-db/db mice; [3]): 40% | Triglyceride Lowering (%) (C57BL/KsJ-db/db mice; [3]): 40%

(−) 3-[4-[2-(Phenoxazin-10-yl)ethoxy]phenyl]-2-ethoxypropanoic acid, magnesium salt [Example 25]
Triglyceride Lowering (%) (Swiss albino mice): 6%

— US6548666B1, “Tricyclic compounds and their use in medicine process for their preparation and pharmaceutical compositions containing them” (Dr. Reddy's Research Foundation, priority 1997, dated 2003)
